Data on 14 compounds can be found in US10457679B2, “Imidazo[4,5-c]quinolin-2-one compounds and their use in treating cancer” (AstraZeneca AB, priority 2015, dated 2019).

The term IC50 denotes the concentration that inhibits the measured activity by half.

One assay addresses T1, ATR kinase (Homo sapiens, UniProt Q13535).
T1 construct: measuring a decrease in phosphorylation of Chk1 (Ser 345) in HT29 cells; endogenous in cells; host or cells: HT29 cells (ECACC #85061109)
In words: Assay b) ATR cellular potency (pChk1 Ser345 in HT29 cells after 4NQO). Type of assay: cell-based. As to conditions: HT29 cells, 4NQO, pChk1 Ser345; may be geometric mean of several tests; read-out: Assay b) ATR Cell IC50. From the text: Assay b): ATR Cellular Potency
ATR is a PI 3-kinase-related kinase which phosphorylates multiple substrates on serine or threonine residues in response to DNA damage during or replication blocks. Chk1, a downstream protein kinase of ATR, plays a key role in DNA damage checkpoint control. Activation of Chk1 involves phosphorylation of Ser317 and Ser345 (the latter regarded as the preferential target for phosphorylation/activation by ATR).
The following morning compound of Formula (I) in 100% DMSO were added to assay plates by acoustic dispensing. After 1 h incubation at 37° C. and 5% CO2. 40 nl of 3 mM 4NQO in 100% DMSO was added to all wells by acoustic dispensing, except minimum control wells which were left untreated with 4NQO to generate a null response control. Plates were returned to the incubator for a further 1 h. […] Then 20 μl of 0.1% Triton X100 in PBS was added and incubated for 10 minutes at r.t., to permeabalise cells. Then the plates were washed once with 50 μl/well PBS, using a Biotek EL405 plate washer.
After 2 h incubation at r.t., the plates were washed three times with 50 μl/well PBS, using a Biotek EL405 plate washer, and plates were then sealed with black plate seals until read. Plates were read using an ArrayScan VTI instrument, using an XF53 filter with 10× objective.

A further assay concerns the target PI3K-α (Homo sapiens, UniProt P42336). The experiment in a line: Assay c) PI3K cellular potency (phospho-Akt T308 ELISA in BT474 cells). The format is cell-based. The following applies: BT474 cells, 2 h, phospho-AKT T308; may be geometric mean of several tests; read-out: Assay c) PI3Kα Cell IC50. From the text: Assay c): PI3K Cellular Potency
This assay was used to measure PI3K-α inhibition in cells. PDK1 was identified as the upstream activation loop kinase of protein kinase B (Akt 1), which is essential for the activation of PKB. Activation of the lipid kinase phosphoinositide 3 kinase (PI3K) is critical for the activation of PKB by PDK1.
Following ligand stimulation of receptor tyrosine kinases, PI3K is activated, which converts PIP2 to PIP3, which is bound by the PH domain of PDK1 resulting in recruitment of PDK1 to the plasma membrane where it phosphorylates AKT at Thr308 in the activation loop.
The aim of this cell-based mode of action assay is to identify compounds that inhibit PDK activity or recruitment of PDK1 to membrane by inhibiting PI3K activity. Phosphorylation of phospho-Akt (T308) in BT474c cells following treatment with compounds for 2 h is a direct measure of PDK1 and indirect measure of PI3K activity.
BT474 cells (human breast ductal carcinoma, ATCC HTB-20) were seeded into black 384 well plates (Costar, #3712) at a density of 5600 cells/well in DMEM containing 10% FBS and 1% glutamine and allowed to adhere overnight.
The following morning compounds in 100% DMSO were added to assay plates by acoustic dispensing. After a 2 h incubation at 37° C. and 5% CO2, the medium was aspirated and the cells were lysed with a buffer containing 25 mM Tris, 3 mM EDTA, 3 mM EGTA, 50 mM sodium fluoride, 2 mM Sodium orthovanadate, 0.27M sucrose, 10 mM β-glycerophosphate, 5 mM sodium pyrophosphate, 0.5% Triton X-100 and complete protease inhibitor cocktail tablets (Roche #04 693 116 001, used 1 tab per 50 ml lysis buffer).
After 20 minutes, the cell lysates were transferred into ELISA plates (Greiner #781077) which had been pre-coated with an anti total-AKT antibody in PBS buffer and non-specific binding was blocked with 1% BSA in PBS containing 0.05% Tween 20. Plates were incubated over night at 4° C. The next day the plates were washed with PBS buffer containing 0.05% Tween 20 and further incubated with a mouse monoclonal anti-phospho AKT T308 for 2 h. Plates were washed again as above before addition of a horse anti-mouse-HRP conjugated secondary antibody. Following a 2 h incubation at r.t., plates were washed and QuantaBlu substrate working solution (Thermo Scientific #15169, prepared according to provider's instructions) was added to each well. The developed fluorescent product was stopped after 60 minutes by addition of Stop solution to the wells. Plates were read using a Tecan Safire plate reader using 325 nm excitation and 420 nm emission wavelengths respectively. Except where specified, reagents contained in the Path Scan Phospho AKT (Thr308) sandwich ELISA kit from Cell Signalling (#7144) were used in this ELISA assay.
(In general: An ELISA detects its analyte on a solid surface through an enzyme-linked reagent.)

Chain of PI3K-α (P42336 whole entry): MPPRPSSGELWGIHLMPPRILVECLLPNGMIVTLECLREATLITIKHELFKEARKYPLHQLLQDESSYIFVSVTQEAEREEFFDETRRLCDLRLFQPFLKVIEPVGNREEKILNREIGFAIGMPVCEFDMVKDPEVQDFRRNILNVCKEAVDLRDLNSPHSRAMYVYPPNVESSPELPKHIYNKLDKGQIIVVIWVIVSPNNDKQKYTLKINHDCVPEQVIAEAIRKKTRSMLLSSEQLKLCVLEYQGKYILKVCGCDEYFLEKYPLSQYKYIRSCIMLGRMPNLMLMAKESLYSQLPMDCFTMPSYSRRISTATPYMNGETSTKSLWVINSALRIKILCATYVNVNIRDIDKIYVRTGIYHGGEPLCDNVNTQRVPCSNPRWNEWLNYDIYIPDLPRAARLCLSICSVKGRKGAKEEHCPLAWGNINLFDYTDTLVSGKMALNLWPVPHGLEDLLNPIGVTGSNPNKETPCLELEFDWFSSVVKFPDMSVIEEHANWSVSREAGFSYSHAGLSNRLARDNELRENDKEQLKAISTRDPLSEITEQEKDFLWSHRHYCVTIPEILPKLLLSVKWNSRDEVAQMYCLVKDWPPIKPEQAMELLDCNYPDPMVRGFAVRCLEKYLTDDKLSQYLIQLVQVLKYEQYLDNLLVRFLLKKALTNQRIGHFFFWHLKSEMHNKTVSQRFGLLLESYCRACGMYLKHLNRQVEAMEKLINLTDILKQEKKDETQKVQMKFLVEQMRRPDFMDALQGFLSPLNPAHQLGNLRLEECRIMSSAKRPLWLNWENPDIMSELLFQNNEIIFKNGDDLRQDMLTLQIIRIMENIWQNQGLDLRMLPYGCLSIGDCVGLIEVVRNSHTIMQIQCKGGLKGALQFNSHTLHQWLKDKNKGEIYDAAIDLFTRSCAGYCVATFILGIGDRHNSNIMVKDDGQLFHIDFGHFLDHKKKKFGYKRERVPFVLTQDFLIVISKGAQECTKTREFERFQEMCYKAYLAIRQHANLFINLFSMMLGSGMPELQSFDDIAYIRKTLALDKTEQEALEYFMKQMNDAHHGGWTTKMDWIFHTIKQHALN
T1 sequence (Q13535 whole entry): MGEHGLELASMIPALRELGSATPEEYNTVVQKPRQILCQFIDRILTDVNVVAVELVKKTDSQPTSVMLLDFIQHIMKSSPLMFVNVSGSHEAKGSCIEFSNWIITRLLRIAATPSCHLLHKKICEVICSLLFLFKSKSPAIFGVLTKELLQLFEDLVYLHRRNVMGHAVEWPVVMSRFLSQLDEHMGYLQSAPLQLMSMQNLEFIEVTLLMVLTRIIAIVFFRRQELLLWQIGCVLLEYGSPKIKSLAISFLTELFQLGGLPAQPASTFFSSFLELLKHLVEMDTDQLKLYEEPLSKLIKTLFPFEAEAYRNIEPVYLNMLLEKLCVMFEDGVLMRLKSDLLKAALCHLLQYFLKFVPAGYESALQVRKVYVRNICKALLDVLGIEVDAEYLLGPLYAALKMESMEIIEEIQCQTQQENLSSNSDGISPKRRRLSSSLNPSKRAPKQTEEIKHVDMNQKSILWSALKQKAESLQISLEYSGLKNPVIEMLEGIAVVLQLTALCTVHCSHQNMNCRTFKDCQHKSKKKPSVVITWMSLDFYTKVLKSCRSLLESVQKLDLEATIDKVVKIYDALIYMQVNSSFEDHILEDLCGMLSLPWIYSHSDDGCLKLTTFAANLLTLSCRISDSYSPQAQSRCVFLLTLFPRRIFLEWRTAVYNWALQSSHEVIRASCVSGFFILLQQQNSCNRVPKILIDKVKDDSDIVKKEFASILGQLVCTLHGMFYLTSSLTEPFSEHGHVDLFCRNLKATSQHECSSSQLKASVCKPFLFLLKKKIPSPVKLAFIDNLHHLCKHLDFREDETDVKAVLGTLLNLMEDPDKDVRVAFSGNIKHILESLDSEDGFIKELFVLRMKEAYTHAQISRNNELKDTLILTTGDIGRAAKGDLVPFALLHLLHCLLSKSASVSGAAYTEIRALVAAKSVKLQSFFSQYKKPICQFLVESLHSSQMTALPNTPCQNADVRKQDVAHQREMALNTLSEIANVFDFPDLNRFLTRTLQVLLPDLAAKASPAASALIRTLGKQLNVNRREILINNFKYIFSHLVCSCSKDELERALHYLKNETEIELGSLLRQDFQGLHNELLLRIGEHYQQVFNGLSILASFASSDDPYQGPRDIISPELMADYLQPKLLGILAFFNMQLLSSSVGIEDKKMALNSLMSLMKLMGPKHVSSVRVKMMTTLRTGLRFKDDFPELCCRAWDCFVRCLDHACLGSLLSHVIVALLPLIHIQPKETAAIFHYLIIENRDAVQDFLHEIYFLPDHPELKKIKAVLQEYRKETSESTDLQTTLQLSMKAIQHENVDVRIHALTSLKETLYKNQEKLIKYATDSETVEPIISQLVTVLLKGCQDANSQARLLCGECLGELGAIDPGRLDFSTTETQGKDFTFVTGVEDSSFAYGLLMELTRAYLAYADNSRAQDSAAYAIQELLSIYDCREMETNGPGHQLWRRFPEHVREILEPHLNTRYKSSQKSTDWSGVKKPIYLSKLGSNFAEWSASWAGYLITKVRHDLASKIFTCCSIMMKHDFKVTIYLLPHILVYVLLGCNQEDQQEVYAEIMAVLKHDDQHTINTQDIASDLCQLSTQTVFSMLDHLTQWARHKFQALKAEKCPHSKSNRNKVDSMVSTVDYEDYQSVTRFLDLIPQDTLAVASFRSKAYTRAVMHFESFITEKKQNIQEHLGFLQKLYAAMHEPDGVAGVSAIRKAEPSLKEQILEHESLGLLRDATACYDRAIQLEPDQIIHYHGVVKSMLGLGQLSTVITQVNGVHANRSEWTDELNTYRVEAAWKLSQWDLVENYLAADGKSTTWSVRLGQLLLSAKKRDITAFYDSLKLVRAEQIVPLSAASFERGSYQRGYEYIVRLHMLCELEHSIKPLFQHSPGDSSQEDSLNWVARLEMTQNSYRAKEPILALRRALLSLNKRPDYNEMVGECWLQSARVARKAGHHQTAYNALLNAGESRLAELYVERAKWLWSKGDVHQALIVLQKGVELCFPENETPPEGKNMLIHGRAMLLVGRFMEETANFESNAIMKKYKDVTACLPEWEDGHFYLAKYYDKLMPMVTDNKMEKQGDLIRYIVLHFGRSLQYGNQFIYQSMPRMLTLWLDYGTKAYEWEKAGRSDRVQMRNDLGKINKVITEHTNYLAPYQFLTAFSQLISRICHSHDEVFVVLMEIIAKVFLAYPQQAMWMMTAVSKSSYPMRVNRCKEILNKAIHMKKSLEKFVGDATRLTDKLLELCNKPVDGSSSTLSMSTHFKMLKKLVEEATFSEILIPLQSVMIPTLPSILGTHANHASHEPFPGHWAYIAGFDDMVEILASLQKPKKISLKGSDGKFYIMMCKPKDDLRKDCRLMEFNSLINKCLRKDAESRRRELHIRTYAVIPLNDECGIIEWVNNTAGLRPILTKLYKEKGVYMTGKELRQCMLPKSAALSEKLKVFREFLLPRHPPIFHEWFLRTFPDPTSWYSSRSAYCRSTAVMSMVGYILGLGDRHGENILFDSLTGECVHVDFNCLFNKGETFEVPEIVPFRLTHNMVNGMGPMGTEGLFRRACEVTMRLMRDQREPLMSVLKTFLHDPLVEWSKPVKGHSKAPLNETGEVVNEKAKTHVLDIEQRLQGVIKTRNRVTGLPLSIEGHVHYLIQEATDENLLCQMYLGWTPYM
T1 sequence (Q8WXE1 whole entry partner): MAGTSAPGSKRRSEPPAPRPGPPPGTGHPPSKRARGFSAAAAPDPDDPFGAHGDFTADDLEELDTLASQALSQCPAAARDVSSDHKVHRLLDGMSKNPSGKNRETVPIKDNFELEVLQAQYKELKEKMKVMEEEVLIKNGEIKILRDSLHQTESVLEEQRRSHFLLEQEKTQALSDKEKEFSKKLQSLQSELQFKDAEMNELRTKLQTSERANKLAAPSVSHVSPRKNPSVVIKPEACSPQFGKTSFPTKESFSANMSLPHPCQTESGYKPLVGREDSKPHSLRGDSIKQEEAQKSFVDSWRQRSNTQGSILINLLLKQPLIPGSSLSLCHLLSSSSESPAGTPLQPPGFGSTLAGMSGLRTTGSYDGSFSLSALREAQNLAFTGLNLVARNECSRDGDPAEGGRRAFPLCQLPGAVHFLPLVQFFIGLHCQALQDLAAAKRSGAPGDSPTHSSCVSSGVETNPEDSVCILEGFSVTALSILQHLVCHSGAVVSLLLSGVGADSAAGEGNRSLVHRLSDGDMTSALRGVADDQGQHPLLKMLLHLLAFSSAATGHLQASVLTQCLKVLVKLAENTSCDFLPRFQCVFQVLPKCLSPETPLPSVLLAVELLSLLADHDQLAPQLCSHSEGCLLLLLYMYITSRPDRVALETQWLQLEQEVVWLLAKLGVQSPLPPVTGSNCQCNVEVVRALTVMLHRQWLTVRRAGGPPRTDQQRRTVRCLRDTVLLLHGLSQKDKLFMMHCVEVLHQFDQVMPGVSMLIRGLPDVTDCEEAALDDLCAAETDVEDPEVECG

Take `CC(C)n1c(=O)n(C)c2cnc3cc(F)c(-c4ccc(OCCCN5CCCCC5)nc4)cc3c21` [Example 2, 7-Fluoro-1-isopropyl-3-methyl-8-[6-[3-(1-piperidyl)propoxy]-3-pyridyl]imidazo[4,5-c]quinolin-2-one]: the values for the IC50 on ATR kinase and on PI3K-α were over 30 µM and over 12 µM, respectively.

On to `CC(C)n1c(=O)n(C)c2cnc3cc(F)c(-c4ccc(OCCCN5CCCC5)nc4)cc3c21` [Example 3, 7-Fluoro-1-isopropyl-3-methyl-8-[6-(3-pyrrolidin-1-ylpropoxy)-3-pyridyl]imidazo[4,5-c]quinolin-2-one], for which the IC50 is over 30 µM on ATR kinase and 11.4 µM at PI3K-α.

Consider `CC(C)n1c(=O)n(C)c2cnc3cc(F)c(-c4ccc(OCCCN5CCC5)nc4)cc3c21` [Example 4, 8-[6-[3-(azetidin-1-yl)propoxy]-3-pyridyl]-7-fluoro-1-isopropyl-3-methyl-imidazo[4,5-c]quinolin-2-one], for which the 50% inhibitory concentration (IC50) at ATR kinase is over 30 µM; on PI3K-α, 4.52 µM.

Take `CC(C)n1c(=O)n(C)c2cnc3ccc(-c4ccc(OCCCN(C)C)nc4)cc3c21` [Example 6, 8-[6-[3-(dimethylamino)propoxy]-3-pyridyl]-1-isopropyl-3-methyl-imidazo[4,5-c]quinolin-2-one]: the IC50 at ATR kinase was over 20.7 µM; at PI3K-α, 0.184 µM.

As to `CC(C)n1c(=O)n(C)c2cnc3ccc(-c4ccc(OCCCN5CCCC5)nc4)cc3c21` [Example 7, 1-isopropyl-3-methyl-8-[6-(3-pyrrolidin-1-ylpropoxy)-3-pyridyl]imidazo[4,5-c]quinolin-2-one], the IC50 was over 30 µM on ATR kinase and 0.222 µM at PI3K-α.

For the compound `CC(C)n1c(=O)n(C)c2cnc3ccc(-c4ccc(OCCCN5CCC5)nc4)cc3c21` [Example 8, 8-[6-[3-(Azetidin-1-yl)propoxy]-3-pyridyl]-1-isopropyl-3-methyl-imidazo[4,5-c]quinolin-2-one], the IC50 on PI3K-α was 0.661 µM.

As to `CC(C)n1c(=O)n(C)c2cnc3ccc(-c4ccc(OCCCN5CCCCC5)nc4F)cc3c21` [Example 9, 8-[2-Fluoro-6-[3-(1-piperidyl)propoxy]-3-pyridyl]-1-isopropyl-3-methyl-imidazo[4,5-c]quinolin-2-one], the results for the IC50 on ATR kinase and on PI3K-α were over 30 µM and 5.75 µM, respectively.

Take `CC(C)n1c(=O)n(C)c2cnc3ccc(-c4ccc(OCCCN(C)C)nc4F)cc3c21` [Example 10, 8-[6-[3-(dimethylamino)propoxy]-2-fluoro-3-pyridyl]-1-isopropyl-3-methyl-imidazo[4,5-c]quinolin-2-one]: the IC50 on ATR kinase was over 30 µM; at PI3K-α, 6.18 µM.

Take `CC(C)n1c(=O)n(C)c2cnc3ccc(-c4ccc(OCCCN5CCCC5)nc4F)cc3c21` [Example 12, 8-[2-fluoro-6-(3-pyrrolidin-1-ylpropoxy)-3-pyridyl]-1-isopropyl-3-methyl-imidazo[4,5-c]quinolin-2-one]: the figures for the IC50 on ATR kinase and at PI3K-α were over 30 µM and 2.89 µM, respectively.

Take `CC(C)n1c(=O)n(C)c2cnc3cc(F)c(-c4ccc(OCCCN5CCCC5)nc4F)cc3c21` [Example 13, 7-fluoro-8-[2-fluoro-6-(3-pyrrolidin-1-ylpropoxy)-3-pyridyl]-1-isopropyl-3-methyl-imidazo[4,5-c]quinolin-2-one]: the IC50 on ATR kinase was over 30 µM; on PI3K-α, 22.9 µM.

In the case of `CC(C)n1c(=O)n(C)c2cnc3cc(F)c(-c4ccc(OCCCN5CCCCC5)nc4F)cc3c21` [Example 14, 7-fluoro-8-[2-fluoro-6-[3-(1-piperidyl)propoxy]-3-pyridyl]-1-isopropyl-3-methyl-imidazo[4,5-c]quinolin-2-one], the IC50 on ATR kinase and at PI3K-α was over 30 µM throughout.

For the compound `CC(C)n1c(=O)n(C)c2cnc3cc(F)c(-c4ccc(OCCCN5CCC5)nc4F)cc3c21` [Example 16, 8-[6-[3-(azetidin-1-yl)propoxy]-2-fluoro-3-pyridyl]-7-fluoro-1-isopropyl-3-methyl-imidazo[4,5-c]quinolin-2-one], the IC50 at ATR kinase was over 30 µM; on PI3K-α it was 9.08 µM.

Regarding `CC(C)n1c(=O)[nH]c2cnc3cc(F)c(-c4ccc(OCCCN5CCCCC5)nc4)cc3c21` [Example 18, 7-Fluoro-1-isopropyl-8-[6-[3-(1-piperidyl)propoxy]-3-pyridyl]-3H-imidazo[4,5-c]quinolin-2-one], the IC50 at ATR kinase and at PI3K-α was over 30 µM throughout.

As for `CC(C)n1c(=O)n(C)c2cnc3cc(F)c(-c4ccc(OCCC[N+]5([O-])CCCCC5)nc4)cc3c21` [Metabolite A, 7-Fluoro-1-isopropyl-3-methyl-8-[6-[3-(1-oxidopiperidin-1-ium-1-yl)propoxy]-3-pyridyl]imidazo[4,5-c]quinolin-2-one], the values for the IC50 at ATR kinase and on PI3K-α were 9.41 µM and 27.8 µM, respectively.
